For series [1] the following is noted: cited from earlier work.
Series [2] in a line: Solubility test: dithiol compound in 100 g of respective solvents at 25° C. The format is physicochemical. The method, then: The solubilities (weight %) of the dithiol compound in 100 g of the respective solvents shown in Table 1 at 25° C. ar indicated in Table 1.
A short description of series [3]: Storage and stability test in transparent glass vessels at 60° C. (50% compositions, HPLC remaining rate). The format is physicochemical. The method, then: In transparent 50 ml-glass vessels, a 50% N-methyl-2-pyrrolidone composition of the dithiol compound (the composition of the present invention), a 50% dimethylformamide composition containing 5 weight % diethylene glycol monomethyl ether, a 50% N-vinyl-2-pyrrolidone composition and a 50% 2-pyrrolidone composition of the dithiol compound (compositions for comparison) were prepared, and the storage and stability tests were conducted.
The tests were conducted by leaving the compositions standing at 60° C. for 15 days and 30 days and examining the remaining rate of the dithiol compound based upon the measurement of area ratio at 317 nm by means of high performance liquid chromatography (HPLC).

Series [4] in a line: Crystallization and redissolution test. The format is physicochemical. The method, then: In transparent 50 ml-glass vessels, the dithiol compound and N-methyl-2-pyrrolidone were mixed at the prescribed concentrations, and dissolved, if necessary, under heating. The crystals were yielded by cooling these solutions suitably, under the observation of the state. The crystallizing temperature was measured. The crystallized solutions were heated, and the temperature at which the crystals began to dissolve was measured.

A short description of series [5]: Storage and stability test in polyethylene bottle in can at 60° C. (HPLC remaining rate; half life). The settings on record: for Half life of dithiol compound: first order. The format is physicochemical. The method, then:
The dithiol compound and N-methyl-2-pyrrolidone were mixed at the concentrations as shown in Table 4 to prepare compositions. Each 50 ml of the compositions was served in a polyethylene bottle, and the bottle was further served tightly in a can with a lid.
The storage and stability tests were conducted by leaving the compositions standing at 60° C. for 11 days (or 15 days) and 30 days in the above state and examining the remaining rate of the dithiol compound based upon the measurement of area ratio at 317 nm by means of high performance liquid chromatography (HPLC).
Since the decomposition rate of the dithiol compound fit to the first order reaction, a half life of the dithiol compound (t 1/2), in the each compositions at 60° C., was calculated with the following equation: […]
wherein α represents a remaining percentage of the dithiol compound, k represents a decomposition rate constant of the dithiol compound and t represents a number of days.

Series [6] is described as follows: State of compositions (crystallization, solidification, scoopability, stability) in storage and at low temperature. The format is physicochemical. Conditions: compositions with N-methyl-2-pyrrolidone.
The conditions of series [7]: cited from earlier work. This is another data set of the same source.
For series [8] the following is noted: cited from earlier work. This is another data set of the same source.
The conditions of series [9]: powdery form; cited from earlier work.
For series [10], the system named is viable microbes in industrial cooling water, washing water, raw water, power water. Conditions: raw water and power water, Kokoku No. 14294/1977; cited from earlier work.
The mark [11] stands for this setting: 10 weight % in N-methyl-2-pyrrolidone.
Where [12] appears, read: 20 weight % in N-methyl-2-pyrrolidone.
Setting [13] is: 30 weight % in N-methyl-2-pyrrolidone.
Where [14] appears, read: 40 weight % in N-methyl-2-pyrrolidone.
The mark [15] stands for this setting: 50 weight % in N-methyl-2-pyrrolidone.
The mark [16] stands for this setting: 60 weight % in N-methyl-2-pyrrolidone.
The mark [17] stands for this setting: 70 weight % in N-methyl-2-pyrrolidone.
Setting [18] is: 80 weight % in N-methyl-2-pyrrolidone.

Read-outs that look alike come from different tables or passages of the source.

Turning to `CN(C)C=O` [dimethylformamide], the Toxicity result in series [1] (solvent) is on record as “inherently so strong in toxicity”.
For `O=c1ssc(Cl)c1Cl` [dithiol compound, 4,5-Dichloro-l,2-dithiol-3-one], the Solubility in series [2] (in 1,2-Bis(bromoacetoxy)ethane) is 21.9 weight %; in series [2] (in 2-Pyrrolidone), 51.0 weight %; in series [2] (in Dimethylformamide containing 5 weight % diethylene glycol monomethyl ether), 67.3 weight %; in [2] (in N-Methyl-2-pyrrolidone), 68.9 weight %; in series [2] (in N-Vinyl-2-pyrrolidone), 53.9 weight %. Further, the “Amount by weight of dissolved dithiol compound” value is given as 28 g in series [2] (in 100 g 1,2-Bis(bromoacetoxy)ethane); 104 g in series [2] (in 100 g 2-Pyrrolidone); 206 g in series [2] (in 100 g Dimethylformamide containing 5 weight % diethylene glycol monomethyl ether); 222 g in [2] (in 100 g N-Methyl-2-pyrrolidone); 117 g in series [2] (in 100 g N-Vinyl-2-pyrrolidone). The “Remaining percentage of dithiol compound” value in series [3] (50% in 2-pyrrolidone, 60° C., 15 days) is recorded as 38.9%; in series [3] (50% in 2-pyrrolidone, 60° C., 30 days), 18.0%; in series [3] (50% in Dimethylformamide containing 5 weight % diethylene glycol monomethyl ether, 60° C., 15 days), 94.2%; in series [3] (50% in Dimethylformamide containing 5 weight % diethylene glycol monomethyl ether, 60° C., 30 days), 84.7%; in [3] (50% in N-methyl-2-pyrrolidone, 60° C., 15 days), 97.3%; in series [3] (50% in N-methyl-2-pyrrolidone, 60° C., 30 days) it was 93.3%. The “Remaining percentage of dithiol compound” value is on record as 70.8% in series [5] (5% in N-methyl-2-pyrrolidone, 15 days); 58.3% in series [5] (5% in N-methyl-2-pyrrolidone, 30 days); 90.5% in series [5] (10% in N-methyl-2-pyrrolidone, 11 days); 83.2% in series [5] (10% in N-methyl-2-pyrrolidone, 30 days); 93.7% in [5] (15% in N-methyl-2-pyrrolidone, 11 days); 87.4% in [5] (15% in N-methyl-2-pyrrolidone, 30 days). In addition, the “Remaining percentage of dithiol compound” value in series [5] (20% in N-methyl-2-pyrrolidone, 11 days) was found to be 93.8%; in series [5] (20% in N-methyl-2-pyrrolidone, 30 days) it was 88.2%; in [5] (25% in N-methyl-2-pyrrolidone, 11 days), 94.3%; in series [5] (25% in N-methyl-2-pyrrolidone, 30 days), 89.0%; in series [5] (30% in N-methyl-2-pyrrolidone, 11 days), 95.6%; in series [5] (30% in N-methyl-2-pyrrolidone, 30 days), 88.8%. The “Remaining percentage of dithiol compound” value in series [5] (35% in N-methyl-2-pyrrolidone, 11 days) came to 95.7%; in series [5] (35% in N-methyl-2-pyrrolidone, 30 days), 89.3%; in [5] (40% in N-methyl-2-pyrrolidone, 11 days) it was 96.6%; in series [5] (40% in N-methyl-2-pyrrolidone, 30 days), 90.4%; in series [5] (50% in N-methyl-2-pyrrolidone, 15 days), 97.3%; in [5] (50% in N-methyl-2-pyrrolidone, 30 days) it was 93.3%. In addition, the “Observation on mixing with N-vinyl-2-pyrrolidone” value in series [3] (N-Vinyl-2-pyrrolidone composition could not be obtained, in a few minutes after mixing) is reported as “exothermic polymerization reaction occurred intensively”. Besides, the “Decomposition of dithiol compound in the composition of the invention” value in [3] (in N-methyl-2-pyrrolidone, left standing 15 days and 30 days, 60° C.) is “scarcely decomposed”. Also, the Crystallizing temperature in series [4] (setting [11]) is -29.3 °C; in series [4] (setting [12]), -27.8 °C; in [4] (setting [13]), -22.0 °C; in series [4] (setting [14]), -18.8 °C; in [4] (setting [15]), -18.3 °C; in series [4] (setting [16]), -13.3 °C. In addition, the Crystallizing temperature is 6.0 °C in series [4] (setting [17]) and 26.8 °C in series [4] (setting [18]). Also, the Crystals-dissolving temperature in series [4] (setting [11]) was -23.7 °C; in [4] (setting [12]), -22.7 °C; in series [4] (setting [13]) it was -16.2 °C; in series [4] (setting [14]), -9.2 °C; in [4] (setting [15]), 4.7 °C; in series [4] (setting [16]), 12.0 °C. In addition, the Crystals-dissolving temperature amounted to 26.5 °C in series [4] (setting [17]) and 36.2 °C in [4] (setting [18]). Also, the “Half life of dithiol compound” value worked out at 39 days in series [5] (5% in N-methyl-2-pyrrolidone); 103 days in [5] (10% in N-methyl-2-pyrrolidone); 145 days in series [5] (15% in N-methyl-2-pyrrolidone); 153 days in series [5] (20% in N-methyl-2-pyrrolidone); 165 days in series [5] (25% in N-methyl-2-pyrrolidone); 174 days in series [5] (30% in N-methyl-2-pyrrolidone). In addition, the “Half life of dithiol compound” value was found to be 181 days in series [5] (35% in N-methyl-2-pyrrolidone), 209 days in [5] (40% in N-methyl-2-pyrrolidone) and 300 days in series [5] (50% in N-methyl-2-pyrrolidone). Besides, the “Storage and stability of the effective ingredient” value in [6] is listed as “extremely high”. Besides, in [7] (aqueous solution), the “Stability in aqueous solution” value is “very unstable in the obtained aqueous solution and susceptible to hydrolysis in a short period of time”. The Solubility in water entry in series [7] (water) is recorded as “below 1%”. Moreover, the “Storage and stability of the dithiol compound” value in series [8] (diethylene glycol monomethyl ether / dimethylformamide preparations, long period) is “insufficient to storage and stability of the dithiol compound over a long period”. In addition, the “Solubility of the dithiol compound” value in [8] (in 1,2-bis(bromoacetoxy)ethane, U.S. Pat. No. 4647577) is given as “about 22%”; in [8] (in mixed solvent of diethylene glycol monomethyl ether and dimethylformamide, 25° C., Kokoku No. 23721/1987), “about 67 weight %”. For the same compound, the Skin irritancy result in series [9] is recorded as “highly skin-irritant”. Besides, the Slime control result in series [10] was “excellent slime control agent”.
In the case of `CN1CCCC1=O` [N-Methyl-2-pyrrolidone], the “Odor, inflammability, toxicity” value in [1] (solvent N-Methyl-2-pyrrolidone) was “few problems in terms of odor, inflammability, toxicity”.

(Values after patent publication US4987148A, “Biocidal 4,5-dichloro-1,2-dithiol-3-one composition” (Yoshitomi Pharmaceutical Industries, Ltd., priority 1989, dated 1991).)
